The subject of this assay is murine model of schizophrenia. The experiment in a line: Social interaction test in a novel environment, PCP mouse model. Conditions: PND 88-89; postnatal PCP 5 mg/kg; oral BCP 10 mg/kg twice a week, PND 43-62. The assay is classed as in vivo, mice. The method, then:
BCP was diluted in canola oil. BCP (10 mg/kg diluted in canola oil) was administered to adolescent mice (PND 43-62) by gavage twice a week (on Sunday and Wednesday) for 3 weeks, a total of 6 gavages. Control group and PCP-induced group received by gavage the oil vehicle.
Each mouse was placed in a novel cage together with a nonaggressive intruder mouse of the same species, same sex and a similar age. The interaction between the two mice was recorded for 10 minutes with EthoVision software (Noldus). Social interaction was defined by contact between the mice (tracking nose point). Reduced duration of contact behavior indicates on impairment in social interaction.

From patent publication US20190070124A1, “COMPOSITIONS OF CB2 RECEPTOR SELECTIVE AGONISTS FOR TREATMENT OF MENTAL DISORDERS” (priority 2016, published 2019) come the findings set out here.

In the case of “trans-(1R,9S)-8-methylene-4,11,11trimethylbicyclo[7.2.0]undec-4-ene [BCP]”, the “social interaction, male mice” value is given as “reversed the effect of 5 mg/kg PCP on social interaction of male mice in the social interaction test”.
